This series can be described thus: pKa of cyan coupler by pH titration (half-neutralization point). Type of series: physicochemical. To be noted: tetrahydrofuran/water 6/4 by volume, solvent mixture of tetrahydrofuran and water 6/4 by volume. Here is the method: The pKa of the coupler can be easily determined by obtaining a pH of a point where neutralization is performed just half on a pH titration curve measured in a solvent mixture of tetrahydrofuran and water in a ratio of 6/4 by volume.

SMILES strings stand for the structures. A value given as a limit tells only on which side of the number the result lay.

As to `CCCCCCCCCCCCc1ccc(S(=O)(=O)c2cc(C(=O)NCCc3ccccc3NC(C)=O)c(O)c3ccccc23)cc1` [Sample C-8], the pKa was 6.02.

For `CCCCCCCCCCCCCCCCNC(=O)c1cc(OCCS(C)(=O)=O)c2ccccc2c1O` [Sample C-4, reference compound], the pKa was 10.3.

For the compound `CCCCCCCCCCCCCCOc1ccccc1NC(=O)c1cc(OC(C)=O)c2ccccc2c1O` [Sample C-6], the pKa is no more than 8.7.

Usually pKa stands for the negative logarithm of the acid dissociation constant.

These data come from US6495313B2, “Silver halide color photographic light-sensitive material” (Fuji Photo Film Co., Ltd., priority 1997, dated 2002).
